Laboratory results taken from PubChem BioAssay (NCI).
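How tested: cells in 96-well plates exposed to compound for 48 hours at five concentrations. TGI: total growth inhibition.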

What was measured:
Assay in all cases: NCI-60 cell line screen, 48 h
SF-295 CNS = tested on: SF-295 CNS
MCF7 breast = tested on: MCF7 breast
HT29 colon = tested on: HT29 colon
SN12C renal = tested on: SN12C renal
HCC-2998 colon = tested on: HCC-2998 colon
SF-268 CNS = tested on: SF-268 CNS
K-562 leukemia = tested on: K-562 leukemia
SW-620 colon = tested on: SW-620 colon
NCI-H460 lung = tested on: NCI-H460 lung
OVCAR-3 ovarian = tested on: OVCAR-3 ovarian
SNB-75 CNS = tested on: SNB-75 CNS
OVCAR-8 ovarian = tested on: OVCAR-8 ovarian
A549 NSCLC = tested on: A549 NSCLC
NCI-H522 lung = tested on: NCI-H522 lung
RPMI-8226 leukemia = tested on: RPMI-8226 leukemia
SR leukemia = tested on: SR leukemia
U251 CNS = tested on: U251 CNS
BT-549 breast = tested on: BT-549 breast
OVCAR-4 ovarian = tested on: OVCAR-4 ovarian
CCRF-CEM leukemia = tested on: CCRF-CEM leukemia
NCI-H226 lung = tested on: NCI-H226 lung
HS 578T breast = tested on: HS 578T breast
MDA-MB-231 breast = tested on: MDA-MB-231 breast
MDA-MB-435 = tested on: MDA-MB-435
EKVX NSCLC = tested on: EKVX NSCLC
NCI-H23 lung = tested on: NCI-H23 lung
SNB-19 CNS = tested on: SNB-19 CNS
TK-10 renal = tested on: TK-10 renal
IGROV1 ovarian = tested on: IGROV1 ovarian
SK-MEL-2 melanoma = tested on: SK-MEL-2 melanoma
CAKI-1 renal = tested on: CAKI-1 renal
UACC-62 melanoma = tested on: UACC-62 melanoma
SK-MEL-5 melanoma = tested on: SK-MEL-5 melanoma
HCT-15 colon = tested on: HCT-15 colon
MALME-3M melanoma = tested on: MALME-3M melanoma
UACC-257 melanoma = tested on: UACC-257 melanoma
MDA-N = tested on: MDA-N
PC-3 prostate = tested on: PC-3 prostate
SF-539 CNS = tested on: SF-539 CNS
M14 melanoma = tested on: M14 melanoma
SK-OV-3 ovarian = tested on: SK-OV-3 ovarian
COLO 205 colon = tested on: COLO 205 colon
HCT-116 colon = tested on: HCT-116 colon
NCI/ADR-RES ovarian = tested on: NCI/ADR-RES ovarian
KM12 colon = tested on: KM12 colon
ACHN renal = tested on: ACHN renal
786-0 renal = tested on: 786-0 renal
OVCAR-5 ovarian = tested on: OVCAR-5 ovarian
HOP-92 NSCLC = tested on: HOP-92 NSCLC
SK-MEL-28 melanoma = tested on: SK-MEL-28 melanoma
LOX IMVI melanoma = tested on: LOX IMVI melanoma
DU-145 prostate = tested on: DU-145 prostate
HL-60(TB) leukemia = tested on: HL-60(TB) leukemia
MOLT-4 leukemia = tested on: MOLT-4 leukemia
HOP-62 NSCLC = tested on: HOP-62 NSCLC
UO-31 renal = tested on: UO-31 renal
A498 renal = tested on: A498 renal
T-47D breast = tested on: T-47D breast

Compound `C=C1CC(C)(COc2ccc3c(C)c(Cl)c(=O)oc3c2)OC1=O` (configuration not stated) has a TGI (SF-295 CNS) of 21.4 µM, a TGI (MCF7 breast) of 3.15 µM and a TGI (HT29 colon) of 3.48 µM. The TGI (SN12C renal) was 18.9 µM, the TGI (HCC-2998 colon) was 4.27 µM and the TGI (SF-268 CNS) was 19.2 µM. For the same compound, the TGI (K-562 leukemia) was 5.98 µM, the TGI (SW-620 colon) was 3.15 µM and the TGI (NCI-H460 lung) was 21.2 µM. It also gave a TGI (OVCAR-3 ovarian) of 16.9 µM, a TGI (SNB-75 CNS) of 7.95 µM and a TGI (OVCAR-8 ovarian) of 17.3 µM. For the same compound, the TGI (A549 NSCLC) was 25.5 µM, the TGI (NCI-H522 lung) was 2.1 µM and the TGI (RPMI-8226 leukemia) was 1830 nM. The TGI (SR leukemia) was 6.47 µM, the TGI (U251 CNS) was 21 µM and the TGI (BT-549 breast) was 2810 nM. For the same compound, the TGI (OVCAR-4 ovarian) was 10.4 µM, the TGI (CCRF-CEM leukemia) was 2540 nM and the TGI (NCI-H226 lung) was 17.8 µM. For the same compound, the TGI (HS 578T breast) was > 100 µM, the TGI (MDA-MB-231 breast) was 12.6 µM and the TGI (MDA-MB-435) was 11.7 µM. It also gave a TGI (EKVX NSCLC) of 20.8 µM, a TGI (NCI-H23 lung) of 4.2 µM and a TGI (SNB-19 CNS) of 26.7 µM. The TGI (TK-10 renal) was 3.06 µM, the TGI (IGROV1 ovarian) was 3.94 µM and the TGI (SK-MEL-2 melanoma) was 4.47 µM. For the same compound, the TGI (CAKI-1 renal) was 6.58 µM, the TGI (UACC-62 melanoma) was 3.01 µM and the TGI (SK-MEL-5 melanoma) was 4.2 µM. For the same compound, the TGI (HCT-15 colon) was 5.86 µM, the TGI (MALME-3M melanoma) was 7.63 µM and the TGI (UACC-257 melanoma) was 3.48 µM. The TGI (MDA-N) was 5.45 µM, the TGI (PC-3 prostate) was 12 µM and the TGI (SF-539 CNS) was 15.6 µM. It also gave a TGI (M14 melanoma) of 3.65 µM, a TGI (SK-OV-3 ovarian) of 17.6 µM and a TGI (COLO 205 colon) of 2430 nM. It also gave a TGI (HCT-116 colon) of 1570 nM, a TGI (NCI/ADR-RES ovarian) of 14.2 µM and a TGI (KM12 colon) of 14.5 µM. It also gave a TGI (ACHN renal) of 11.4 µM, a TGI (786-0 renal) of 4.65 µM and a TGI (OVCAR-5 ovarian) of 13.4 µM. It also gave a TGI (HOP-92 NSCLC) of 4.41 µM, a TGI (SK-MEL-28 melanoma) of 7.59 µM and a TGI (LOX IMVI melanoma) of 2910 nM. It also gave a TGI (DU-145 prostate) of 6.8 µM, a TGI (HL-60(TB) leukemia) of 1.21 µM and a TGI (MOLT-4 leukemia) of 3.24 µM. It also gave a TGI (HOP-62 NSCLC) of 34.5 µM and a TGI (UO-31 renal) of 9.63 µM.
`CC1(C)OP(=O)(c2ccccc2)C=C1Sc1ccc([N+](=O)[O-])cc1[N+](=O)[O-]` (configuration not stated) was tested, and the TGI (SF-295 CNS) was > 100 µM, the TGI (MCF7 breast) was > 100 µM and the TGI (HT29 colon) was > 100 µM. For the same compound, the TGI (SN12C renal) was > 100 µM, the TGI (SF-268 CNS) was > 100 µM and the TGI (K-562 leukemia) was 67.3 µM. The TGI (SW-620 colon) was > 100 µM, the TGI (NCI-H460 lung) was > 100 µM and the TGI (OVCAR-3 ovarian) was > 100 µM. For the same compound, the TGI (SNB-75 CNS) was > 100 µM, the TGI (OVCAR-8 ovarian) was > 100 µM and the TGI (A549 NSCLC) was > 100 µM. For the same compound, the TGI (NCI-H522 lung) was 36.6 µM, the TGI (A498 renal) was > 100 µM and the TGI (SR leukemia) was 42.9 µM. The TGI (U251 CNS) was > 100 µM, the TGI (OVCAR-4 ovarian) was > 100 µM and the TGI (NCI-H226 lung) was > 100 µM. For the same compound, the TGI (HS 578T breast) was > 100 µM, the TGI (MDA-MB-435) was > 100 µM and the TGI (EKVX NSCLC) was > 100 µM. The TGI (NCI-H23 lung) was > 100 µM, the TGI (SNB-19 CNS) was > 100 µM and the TGI (TK-10 renal) was > 100 µM. The TGI (IGROV1 ovarian) was > 100 µM, the TGI (SK-MEL-2 melanoma) was > 100 µM and the TGI (CAKI-1 renal) was > 100 µM. The TGI (UACC-62 melanoma) was > 100 µM, the TGI (SK-MEL-5 melanoma) was > 100 µM and the TGI (HCT-15 colon) was > 100 µM. The TGI (MALME-3M melanoma) was > 100 µM, the TGI (UACC-257 melanoma) was > 100 µM and the TGI (MDA-N) was > 100 µM. The TGI (PC-3 prostate) was > 100 µM, the TGI (SF-539 CNS) was > 100 µM and the TGI (M14 melanoma) was > 100 µM. The TGI (SK-OV-3 ovarian) was > 100 µM, the TGI (COLO 205 colon) was > 100000 nM and the TGI (HCT-116 colon) was > 100000 nM. The TGI (NCI/ADR-RES ovarian) was > 100 µM, the TGI (KM12 colon) was > 100 µM and the TGI (ACHN renal) was > 100 µM. For the same compound, the TGI (786-0 renal) was > 100 µM, the TGI (OVCAR-5 ovarian) was > 100 µM and the TGI (HOP-92 NSCLC) was > 100 µM. For the same compound, the TGI (SK-MEL-28 melanoma) was > 100 µM, the TGI (LOX IMVI melanoma) was > 100000 nM and the TGI (T-47D breast) was > 100 µM. The TGI (DU-145 prostate) was > 100 µM, the TGI (HL-60(TB) leukemia) was 37.4 µM and the TGI (HOP-62 NSCLC) was > 100 µM.
